Measured values reported in US6737383B1, “Herbicidal oxadiazolidines” (priority 1999, dated 2004).

Experiments:
[1] = test system: duck salad; experiment: Test B flood test duck salad; format: in vivo, Heteranthera limosa
In short: (§1)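 Flood test on plants grown to the 2-leaf stage; treated plants kept in greenhouse twelve to sixteen days, then visually rated against controls on a 0 (no effect) to 10 (complete control) scale.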

[2] = test system: rice; experiment: Test B flood test rice; format: in vivo, Oryza sativa
In short: as §1

[3] = test system: purple nutsedge; experiment: Test B pre/postemergence purple nutsedge; format: in vivo, Cyperus rotundus
In short: (§2)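 Response is a visual 0-to-10 score relative to untreated plants, where 0 means no effect and 10 means complete control, taken twelve to sixteen days after application. Treatments went onto soil at planting and onto foliage of 1- to 4-leaf plants, using a surfactant-containing non-phytotoxic solvent.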

[4] = test system: giant foxtail; experiment: Test B pre/postemergence giant foxtail; format: in vivo, Setaria faberii
In short: as §2

[5] = test system: morningglory; experiment: Test B pre/postemergence morningglory; format: in vivo, Ipomoea hederacea
In short: as §2

[6] = test system: smallflower flatsedge; experiment: Test B flood test smallflower flatsedge; format: in vivo, Cyperus difformis
In short: as §1

[7] = test system: wild oat; experiment: Test B pre/postemergence wild oat; format: in vivo, Avena fatua
In short: as §2

[8] = test system: blackgrass; experiment: Test B pre/postemergence blackgrass; format: in vivo, Alopecurus myosuroides
In short: as §2

[9] = test system: soybean; experiment: Test B pre/postemergence soybean; format: in vivo, Glycine max
In short: as §2

[10] = test system: crabgrass; experiment: Test B pre/postemergence crabgrass; format: in vivo, Digitaria sanguinalis
In short: as §2

[11] = test system: surinam grass; experiment: Test B pre/postemergence surinam grass; format: in vivo, Brachiaria decumbens
In short: as §2

[12] = test system: velvetleaf; experiment: Test B pre/postemergence velvetleaf; format: in vivo, Abutilon theophrasti
In short: as §2

[13] = test system: wheat; experiment: Test B pre/postemergence wheat; format: in vivo, Triticum aestivum
In short: as §2

[14] = test system: rape; experiment: Test B pre/postemergence rape; format: in vivo, Brassica napus
In short: as §2

[15] = test system: corn; experiment: Test B pre/postemergence corn; format: in vivo, Zea mays
In short: as §2

[16] = Rate 62 g/ha, flood test species, Pre-emergence, visual evaluation after twelve to sixteen days
[17] = Rate 125 g/ha, under heading Pre-emergence, flood test species, visual evaluation after twelve to sixteen days
[18] = Rate 250 g/ha, Pre-emergence (flood test species), scale 0 to 10, 0 is no effect, 10 is complete control
[19] = Rate 500 g/ha, Pre-emergence section of Table B, 0 to 10 scale (0 no effect, 10 complete control)
[20] = Postemergence, Rate 62 g/ha, scale 0 to 10, 0 is no effect, 10 is complete control
[21] = Postemergence, Rate 125 g/ha, scale of 0 to 10 where 0 is no effect and 10 is complete control
[22] = Postemergence, Rate 500 g/ha, scale of 0 to 10 where 0 is no effect and 10 is complete control
[23] = Preemergence, Rate 62 g/ha, scale of 0 to 10 where 0 is no effect and 10 is complete control
[24] = Preemergence, Rate 125 g/ha, scale of 0 to 10 where 0 is no effect and 10 is complete control
[25] = Preemergence, Rate 250 g/ha, scale 0 to 10 (0 no effect, 10 complete control)
[26] = Preemergence, Rate 500 g/ha, scale of 0 to 10 where 0 is no effect and 10 is complete control
[27] = Postemergence, Rate 250 g/ha, scale of 0 to 10, 0 is no effect, 10 is complete control

## CC(C)N(C(=O)n1oc(=O)n(CCC(=O)N(C)C)c1=O)c1ccc(F)cc1 [Compound 638]
[1]; [16]
  Plant response rating, Ducksalad (0 to 10 scale, 0 is no effect, 10 is complete control): 0
[1]; [17]
  Ducksalad plant response rating (0 to 10 scale, 0 is no effect, 10 is complete control): 0
[1]; [18]
  Ducksalad plant response rating: 0
[1]; [19]
  Ducksalad plant response rating: 0
[2]; [16]
  Plant response rating, Rice (0 to 10 scale, 0 is no effect, 10 is complete control): 0
[2]; [17]
  Rice plant response rating (0 to 10 scale, 0 is no effect, 10 is complete control): 0
[2]; [18]
  Rice plant response rating: 0
[2]; [19]
  Rice plant response rating: 0
[3]; [20]
  Plant response rating, Nutsedge: 0
[3]; [21]
  Plant response rating, Nutsedge: 5
[3]; [22]
  Plant response rating, Nutsedge: 7
[3]; [23]
  Nutsedge plant response rating: 0
[3]; [24]
  Nutsedge plant response rating: 5
[3]; [25]
  Plant response rating, Nutsedge: 5
[3]; [26]
  Plant response rating, Nutsedge: 8
[4]; [20]
  Plant response rating, Giant foxtail: 5
[4]; [21]
  Plant response rating, Giant foxtail: 6
[4]; [27]
  Giant foxtail plant response rating: 8
[4]; [22]
  Plant response rating, Giant foxtail: 8
[4]; [23]
  Giant foxtail plant response rating: 10
[4]; [24]
  Giant foxtail plant response rating: 10
[4]; [25]
  Plant response rating, Giant foxtail: 10
[4]; [26]
  Plant response rating, Giant foxtail: 10
[5]; [20]
  Plant response rating, Morningglory: 0
[5]; [21]
  Plant response rating, Morningglory: 2
[5]; [27]
  Morningglory plant response rating: 3
[5]; [22]
  Plant response rating, Morningglory: 7
[5]; [23]
  Morningglory plant response rating: 0
[5]; [24]
  Morningglory plant response rating: 0
[5]; [25]
  Plant response rating, Morningglory: 2
[5]; [26]
  Plant response rating, Morningglory: 7
[6]; [16]
  Plant response rating, S. Flatsedge (0 to 10 scale, 0 is no effect, 10 is complete control): 0
[6]; [17]
  S. Flatsedge plant response rating (0 to 10 scale, 0 is no effect, 10 is complete control): 0
[6]; [18]
  S. Flatsedge plant response rating: 0
[6]; [19]
  S. Flatsedge plant response rating: 0
[7]; [20]
  Plant response rating, Wild oats: 1
[7]; [21]
  Plant response rating, Wild oats: 1
[7]; [27]
  Wild oats plant response rating: 1
[7]; [23]
  Wild oats plant response rating: 4
[7]; [24]
  Wild oats plant response rating: 4
[7]; [25]
  Plant response rating, Wild oats: 10
[7]; [26]
  Plant response rating, Wild oats: 10
[8]; [20]
  Plant response rating, Blackgrass: 0
[8]; [21]
  Plant response rating, Blackgrass: 4
[8]; [27]
  Blackgrass plant response rating: 6
[8]; [22]
  Plant response rating, Blackgrass: 7
[8]; [23]
  Blackgrass plant response rating: 4
[8]; [24]
  Blackgrass plant response rating: 5
[8]; [25]
  Plant response rating, Blackgrass: 9
[8]; [26]
  Plant response rating, Blackgrass: 9
[9]; [20]
  Plant response rating, Soybean: 1
[9]; [21]
  Plant response rating, Soybean: 1
[9]; [27]
  Soybean plant response rating: 3
[9]; [23]
  Soybean plant response rating: 0
[9]; [24]
  Soybean plant response rating: 0
[9]; [25]
  Plant response rating, Soybean: 3
[9]; [26]
  Plant response rating, Soybean: 3
[10]; [20]
  Plant response rating, Crabgrass: 2
[10]; [21]
  Plant response rating, Crabgrass: 5
[10]; [27]
  Crabgrass plant response rating: 8
[10]; [22]
  Plant response rating, Crabgrass: 9
[10]; [23]
  Crabgrass plant response rating: 9
[10]; [24]
  Crabgrass plant response rating: 9
[10]; [25]
  Plant response rating, Crabgrass: 9
[10]; [26]
  Plant response rating, Crabgrass: 10
[11]; [20]
  Plant response rating, B. signalgrass: 0
[11]; [21]
  Plant response rating, B. signalgrass: 4
[11]; [27]
  B. signalgrass plant response rating: 6
[11]; [22]
  Plant response rating, B. signalgrass: 6
[11]; [23]
  B. signalgrass plant response rating: 4
[11]; [24]
  B. signalgrass plant response rating: 7
[11]; [25]
  Plant response rating, B. signalgrass: 8
[11]; [26]
  Plant response rating, B. signalgrass: 8
[12]; [20]
  Plant response rating, Velvetleaf: 0
[12]; [21]
  Plant response rating, Velvetleaf: 2
[12]; [27]
  Velvetleaf plant response rating: 4
[12]; [23]
  Velvetleaf plant response rating: 3
[12]; [24]
  Velvetleaf plant response rating: 5
[12]; [25]
  Plant response rating, Velvetleaf: 5
[12]; [26]
  Plant response rating, Velvetleaf: 10
[13]; [20]
  Plant response rating, Wheat: 0
[13]; [21]
  Plant response rating, Wheat: 0
[13]; [27]
  Wheat plant response rating: 3
[13]; [23]
  Wheat plant response rating: 0
[13]; [24]
  Wheat plant response rating: 0
[13]; [25]
  Plant response rating, Wheat: 3
[13]; [26]
  Plant response rating, Wheat: 7
[14]; [20]
  Plant response rating, Rape: 0
[14]; [21]
  Plant response rating, Rape: 0
[14]; [27]
  Rape plant response rating: 0
[14]; [22]
  Plant response rating, Rape: 0
[14]; [23]
  Rape plant response rating: 0
[14]; [24]
  Rape plant response rating: 5
[14]; [25]
  Plant response rating, Rape: 8
[14]; [26]
  Plant response rating, Rape: 10
[15]; [20]
  Plant response rating, Corn: 0
[15]; [21]
  Plant response rating, Corn: 2
[15]; [27]
  Corn plant response rating: 2
[15]; [22]
  Plant response rating, Corn: 3
[15]; [23]
  Corn plant response rating: 0
[15]; [24]
  Corn plant response rating: 8
[15]; [26]
  Plant response rating, Corn: 8
